Patent US20080214606A1, “Methods for the Identification and Use of Compounds Suitable for the Treatment of Drug Resistant Cancer Cells” (The Government of the United States of America as …, priority 2004, published 2008)

Molecular target: ABCB1 (Homo sapiens, UniProt P08183)
Assay: Correlation of ABCB1 expression with drug sensitivity across the NCI-60
Description: Expression levels are measured by real-time quantitative RT-PCR using the LightCycler RNA Amplification SYBR Green kit and a LightCycler machine (Roche Biochemicals, Indianapolis, Ind.). Specific oligonucleotide probes are designed for each of the ABC transporters using DNAStar Primer Select (DNASTAR Inc.), and they may be synthesized at Lofstrand Laboratories (Gaithersburg, Md.). When possible, the amplicons are designed to encompass exon-intron boundaries to avoid amplification of genomic DNA. Since the Syber Green assay detects accumulation of double stranded DNA, primers are selected (from a battery consisting of about 200 primers) that amplified a single product of the correct size.
RT-PCR is carried out on 150 ng total RNA, in the presence of 250 nM specific primers. Following reverse transcription (20 min at 50° C.), the PCR reaction consists of 45 cycles of denaturation (15 sec at 95° C.), annealing (30 sec at 58° C.), and elongation (30 sec at 72° C.). No-template (water) reaction mixtures are prepared as negative controls.
During PCR amplification, fluorescence emission is measured and recorded in real time by the LightCycler. Crossing point values are calculated, using the LightCycler software package, by the Fit Points analysis method, with baseline fluorescence set at 1. The SyberGreen assay measures accumulation of double-stranded products, and the appearance of primer dimers limits quantitation at high cycle numbers. […] The raw results are expressed as number of cycles to reach the crossing point. If the desired product is not detected, the corresponding value is adjusted to crossing points indicating no expression. To assess the contribution of experimental artifacts, selected cell lines are assessed in replicate.
Both sets are available at http://discover.nci.nih.gov. The two are combined to form a joint dataset that includes 1429 compounds.
To determine quantitatively how well the 47 genes cluster the cell lines by their tissues of origin, a statistical method is employed wherein the kappa statistic is used to indicate how well the observed clusters correspond to the nine tissue-of-origin classifications. […] To control the overall false type 1 error rate, both a step-down procedure (Westfall and Young, 1993, Resampling-Based Multiple Testing: Examples and Methods for p-value Adjustment (New York: Wiley)) and a step-up procedure (Reiner et al., 2003, Bioinformatics 19:368-375) were employed to adjust for multiple testing of all 47 genes simultaneously. In the Benjamini-Hochberg procedure the p-values are computed in the standard way by permutation, assuming that all distributions are exchangeable: the number of values in the permuted data with correlations over a threshold, divided by the number of compounds and by the number of permutations. In this analysis, the False Discovery Rate (q-value) at which each compound would be declared was calculated using the step-up procedure for positively correlated test statistics (again true because all correlations being compared are computed against the same ABC gene): in this procedure the first q-value for the largest correlation is the Bonferroni-corrected p-value for that gene; then further q-values are calculated as qj=max(pj*1429/j, qj-1). This procedure limits the expected proportion of false positives in the list 1, . . . , j to at most qj.

ABCB1, sequence (P08183 whole entry): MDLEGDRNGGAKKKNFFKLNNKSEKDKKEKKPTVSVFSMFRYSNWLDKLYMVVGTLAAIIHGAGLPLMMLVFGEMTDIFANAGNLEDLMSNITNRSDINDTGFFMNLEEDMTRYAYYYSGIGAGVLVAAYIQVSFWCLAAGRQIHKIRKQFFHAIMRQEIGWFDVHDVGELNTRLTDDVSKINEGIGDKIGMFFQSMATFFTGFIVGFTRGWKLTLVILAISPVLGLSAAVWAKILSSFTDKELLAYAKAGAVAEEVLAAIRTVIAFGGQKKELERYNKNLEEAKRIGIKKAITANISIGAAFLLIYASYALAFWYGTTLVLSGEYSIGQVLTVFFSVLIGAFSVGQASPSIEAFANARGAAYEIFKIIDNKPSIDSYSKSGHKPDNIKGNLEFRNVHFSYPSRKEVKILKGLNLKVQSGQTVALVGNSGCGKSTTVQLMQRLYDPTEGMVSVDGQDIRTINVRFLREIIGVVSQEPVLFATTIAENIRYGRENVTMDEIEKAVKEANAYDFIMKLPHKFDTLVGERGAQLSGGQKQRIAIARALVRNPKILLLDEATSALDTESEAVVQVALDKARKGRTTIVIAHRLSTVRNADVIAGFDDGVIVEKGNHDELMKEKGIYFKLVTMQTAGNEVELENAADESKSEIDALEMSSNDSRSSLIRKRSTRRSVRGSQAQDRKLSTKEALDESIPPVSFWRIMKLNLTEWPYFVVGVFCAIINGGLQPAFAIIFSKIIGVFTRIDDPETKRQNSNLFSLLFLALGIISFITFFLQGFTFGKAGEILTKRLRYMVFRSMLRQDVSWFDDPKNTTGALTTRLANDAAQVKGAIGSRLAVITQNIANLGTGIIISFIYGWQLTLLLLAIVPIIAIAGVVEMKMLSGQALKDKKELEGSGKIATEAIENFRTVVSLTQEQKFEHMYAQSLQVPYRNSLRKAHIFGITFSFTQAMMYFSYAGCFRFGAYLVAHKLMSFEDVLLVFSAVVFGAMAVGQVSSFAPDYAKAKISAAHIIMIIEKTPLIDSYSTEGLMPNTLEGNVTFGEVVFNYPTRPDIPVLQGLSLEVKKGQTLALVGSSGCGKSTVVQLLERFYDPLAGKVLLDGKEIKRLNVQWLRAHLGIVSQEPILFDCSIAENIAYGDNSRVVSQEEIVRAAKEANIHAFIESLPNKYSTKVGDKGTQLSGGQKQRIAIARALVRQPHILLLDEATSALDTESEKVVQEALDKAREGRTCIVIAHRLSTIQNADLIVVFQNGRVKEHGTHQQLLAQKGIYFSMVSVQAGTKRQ

Structure (SMILES) | Correlation of antiproliferative activity with ABCB1 expression | Pearson's Correlation Coeff | further results
CC(C)=CCC[C@@H](C)C1=C(Nc2ccccc2F)C(=O)C(C)=C(O)C1=O [NSC697131] | 0.3522 | 0.3514 | 
CS(C)=O.[Cl][Pt][Cl].c1ccc2ncccc2c1 [NSC632790] |  | 0.2677 | 
Cc1c2cnccc2c(C)c2c1c1ccccc1n2CCOC(=O)c1ccccc1 [NSC163443] |  | 0.2891 | 
COc1cc([C@@H]2c3[nH]c4ccccc4c3C[C@H]3COC(=O)N32)cc(OC)c1O [NSC640737] |  | 0.2176 | 
CNC1=C(C)C(=O)C(O)=C([C@H](C)CCC=C(C)C)C1=O [NSC697128] | 0.4349 | 0.4568 | 
COc1c(OC(C)=O)c(OC(C)=O)cc2c1-c1ccc(SC)c(=O)cc1C(NC(C)=O)CC2 (centres unmarked) [NSC 374980] |  |  | Correlation: −0.5590
COc1ccc2nc3c(C(=O)NCCN(C)C)cccc3cc2c1.Cl [NSC 617959] | 0.3586 |  | 
O=C(/C=C/c1ccc(Cl)cc1)c1ccccc(=O)c1O [NSC 356777] | 0.4021 |  | 
C=C1C(=O)O[C@@H]2C[C@H]1CC[C@]1(C)O[C@H]1CC/C(C)=C/CC[C@]2(C)O [NSC285706] |  | 0.3654 | 
NC(=O)NO [hydroxyurea, reference compound] |  |  | Relationship between drug sensitivity and ABCB1 expression (in words): non-correlated or positively correlated
Cc1c(CNc2ccc(Cl)c(C(=O)NC(CC(=O)O)C(=O)O)c2)ccc2nc(N)nc(N)c12 (centres unmarked) [NSC132483] |  | 0.3151 | 
Cc1ccc(C2COc3cc(O)c(O)cc3C2)cc1 (centres unmarked) [NSC600286] |  | 0.2177 | 
NC(=S)NN=Cc1ncccc1O [NSC95678] |  | 0.2475 | 
CN(Cc1cnc2nc(N)nc(N)c2n1)c1ccc(C(=O)N[C@@H](CCC(=O)O)C(=O)O)cc1 [methotrexate, reference compound] |  |  | Relationship between drug sensitivity and ABCB1 expression (in words): non-correlated or positively correlated
COc1c(C)c(C/C=C(\C)CCCCO[Si](c2ccccc2)(c2ccccc2)C(C)(C)C)c(OC)c(OC)c1OC [NSC 687141] | 0.3774 |  | 
CC(C)=CCC[C@@H](C)C1=C(O)C(=O)C(C)=C(NC(C)c2ccccc2)C1=O (some centres unmarked) [NSC697137] | 0.4295 | 0.3828 | 
CC(=O)O[C@H]1C(=O)[C@@]2(C)[C@H]([C@H](OC(=O)c3ccccc3)[C@]3(O)C[C@H](OC(=O)[C@H](O)[C@@H](NC(=O)c4ccccc4)c4ccccc4)C(C)=C1C3(C)C)[C@]1(OC(C)=O)CO[C@@H]1C[C@@H]2O [paclitaxel, reference compound] |  |  | Relationship between drug sensitivity and ABCB1 expression (in words): striking inverse correlations
CN(C)CCNC(=O)c1cc(Cl)cc2cc3ccccc3nc12.Cl [NSC 617966] | 0.3715 |  | 
O=C1c2ccccc2C(=O)c2c1nc1ccccc1c2-c1cncc(-c2c3c(nc4ccccc24)C(=O)c2ccccc2C3=O)c1 [NSC694490] |  | 0.2438 | 
Cc1cc(C)n(-c2nc3ccccc3c(=O)[nH]2)n1 [NSC691081] |  | 0.4305 | 
O=C(CCc1nnc2s/c(=C\c3ccc4c(c3)OCO4)c(=O)n12)Nc1cc(Cl)ccc1Cl [NSC 635543] | 0.3514 |  | 
Nc1nc(N)c2nc(CNc3ccc(C(=O)N[C@@H](CCCNC(=O)c4ccccc4C(=O)O)C(=O)O)cc3)cnc2n1 [NSC633713] |  | 0.2908 | 
CCN(CC)CC[n+]1ccc2c(C)c3[nH]c4ccccc4c3c(C)c2c1 [NSC 359449] |  |  | Correlation: −0.7108
N#Cc1c(Nc2ccccc2)[n+]([O-])c2ccc(Cl)cc2[n+]1[O-] [NSC693869] |  | 0.2805 | 
CC(C)=CCC[C@@H](C)c1c2[nH]c3ccccc3sc-2c(C)c(=O)c1=O [NSC697130] | 0.3925 | 0.4582 | 
CCc1nc(N)nc(N)c1-c1ccc2nn(-c3ccccc3)[n+]([O-])c2c1 [NSC382054] |  | 0.3151 | 
COc1ccc(-c2oc3cc(O)c(OC)c(O)c3c(=O)c2O)cc1 [NSC641548] |  | 0.2632 | 
CC1=C(N2CC2)C(=O)C(C)=C(N2CC2)C1=O [NSC646714] |  | 0.3262 | 

Structure (SMILES) | Correlation of antiproliferative activity with ABCB1 expression | Pearson's Correlation Coeff | further results
O=C1Sc2sc(=S)sc2SC1c1ccccc1 (centres unmarked) [NSC 627452] | 0.3534 |  | 
CNC(=O)C(C)C1CCC2(C)C=CC(=O)C(C)=C2C1O (centres unmarked) [NSC 623069] | 0.459 |  | 
CCCOc1cc2c(cc1O)CC[C@@H]1[C@@H]2CC[C@]2(C)[C@@H](O)CC[C@@H]12 [NSC671041] |  | 0.2610 | 
CC[C@]1(O)C[C@@H]2CN(CCc3c([nH]c4ccccc34)[C@@](C(=O)OC)(c3cc4c(cc3OC)N(C)[C@H]3[C@@](O)(C(=O)OC)[C@H](OC(C)=O)[C@]5(CC)C=CCN6CC[C@]43[C@@H]65)C2)C1 [vinblastine, reference compound] |  |  | Relationship between drug sensitivity and ABCB1 expression (in words): striking inverse correlations
CCc1nc(N)nc(N)c1-c1ccc(Cl)c([N+](=O)[O-])c1 [NSC302325] |  | 0.2979 | 
CCC(C)SC1SCC2C(=O)N(C)C3(CC3C)C(=O)OCC(NC(=O)c3nc4ccccc4cc3O)C(=O)NC(C)C(=O)N(C)C1C(=O)N(C)C1(CC1C)C(=O)OCC(NC(=O)c1nc3ccccc3cc1O)C(=O)NC(C)C(=O)N2C (centres unmarked) [NSC 630678] |  |  | Correlation: −0.7029
C[N+]1(C)C/C(=C\C=C\c2ccccc2)C(=O)/C(=C/C=C/c2ccccc2)C1.[I-] [NSC 636679] |  |  | Correlation: −0.5530
CCc1ccccc1N1CCN(C(=O)c2cc(OC)c(OC)c(OC)c2)CC1 [NSC56030] |  | 0.2372 | 
COc1ccc(O)c(/C=N/NC(=S)N2CCCCC2)c1 [NSC689529] |  | 0.3465 | 
CC(C)=CCC[C@@H](C)C1=C(Nc2ccccc2Cl)C(O)=C(C)C(=O)C1=O [NSC697138] |  | 0.3551 | 
C=C(C)C(=O)O[C@H]1CC2=C[C@@H](C[C@@]3(C)O[C@@H]3[C@H]3OC(=O)C(=C)[C@@H]31)OC2=O [NSC100046] |  | 0.2949 | 
CN(C)c1ccc(/C=C2\C[N+](C)(C)C/C(=C\c3ccc(N(C)C)cc3)C2=O)cc1.[I-] [NSC 618757] |  |  | Correlation: −0.6081
O=C1c2c(nc3ccccc3c2-c2ccccc2)CN1Nc1ccccn1 [NSC 648072] | 0.3579 |  | 
CSc1nc2nn(Cc3ccccc3)cc2c(=O)[nH]1 [NSC 622927] | 0.4001 |  | 
Oc1ccc2ccccc2c1-c1nnc(CCCCCCCCc2nnc(-c3c(O)ccc4ccccc34)o2)o1 [NSC697189] |  | 0.2621 | 
Cc1c2ccncc2c(C)c2c1[nH]c1ccc(Cl)cc12 [NSC176326] |  | 0.3552 | 
CCc1nc(N)nc(N)c1-c1ccc(Cl)c(N=NN(C)C)c1 [NSC330465] |  | 0.2872 | 
Oc1c(CN2CCN(c3ccccc3)CC2)cc(Br)c2cccnc12 [NSC 117028] | 0.3579 |  | 
O=S1(=O)CCC2=CC(C(F)(F)F)=CC(C(F)(F)F)=CN21 [NSC605440] |  | 0.2658 | 
[Se]=P(c1ccccc1)(c1ccccc1)c1ccc(C(c2ccccc2)=P(c2ccccc2)(c2ccccc2)c2ccccc2)cc1 [NSC 676864] |  |  | Correlation: −0.6546
CC(C)=CCC[C@@H](C)C1=C(O)C(Nc2ccccc2Cl)=C(C)C(=O)C1=O [NSC 697132] | 0.3558 |  | 
CN(C)c1nc(N(C)C)nc(N(C)C)n1 [NSC 13875] | 0.4856 |  | 
Nc1ccn([C@@H]2C=C(CO)[C@@H](O)[C@H]2O)c(=O)n1 [NSC375575] |  | 0.2400 | 
C=C(C)[C@@H]1CCc2c(O)c(O)c(=O)cc(C)c2C1 [NSC 310618] | 0.3698 |  | 
O=[N+]([O-])c1ccc(O)c(/C=N/NC(=S)N2CCCCC2)c1 [NSC689530] |  | 0.3398 | 
CCc1nc(N)nc(N)c1-c1ccc([N+](=O)[O-])c(Cl)c1 [NSC602313] |  | 0.3012 | 
O=c1[nH]cc(F)c(=O)[nH]1 [5-fluorouracil, reference compound] |  |  | Relationship between drug sensitivity and ABCB1 expression (in words): non-correlated or positively correlated
